Experimental data published in patent US10421773B2, “Bone-selective osteogenic oxysterol bisphosphonate analogs” (The Regents of the University of California, priority 2014, dated 2019).

Legend:
[1] = system: M2-10B4 osteoprogenitor cells; assay: Osteogenic gene expression (ALP, BSP, OSX) in M2-10B4 cells; format: cell-based; details: 6 and 14 days of treatment, compared with untreated control cells and unconjugated OXY133, ranking within each linker series
Method: (§1) Oxy133-ALN conjugates were tested in M2-10B4 osteoprogenitor cells to ascertain osteogenic activity and confirm their mechanism of action in inducing osteogenic differentiation. Alkaline phosphatase (ALP) activity, induction of the expression of osteogenic differentiation marker genes (ALP; bone sialoprotein (BSP); and osterix (OSX)), and ^45Ca incorporation as a measure of extracellular matrix mineralization were assayed by our previously reported protocols. The inventors have shown that these in vitro assays translate into in vivo stimulation of bone formation in a variety of animal models. The gene expression for ALP, BSP and OSX induced by the OXY133-ALN conjugates were measured after 6 and 14 days of treatment, the results after 6 days are shown in FIG. 1.
(§2) The succinate-linked series (Oxy166, Oxy167, Oxy174) and the carbamate series (Oxy175, Oxy176, and Oxy177) were assayed as groups. […] It may be that OXY133 must be released from the OXY133-ALN conjugates in order to induce osteogenic gene expression. […] A quantitative ^45Ca mineralization assay was performed with analogues and unconjugated OXY133 over a 30-day incubation period in M2 cells as shown in FIG. 2.

[2] = system: M2-10B4 osteoprogenitor cells; assay: Alkaline phosphatase (ALP) activity induction; format: cell-based; details: M2-10B4 cells; result mirrored the gene expression ranking
Method: as §1, §2

[3] = Half-life in human liver microsomes; format: in vitro ADME; details: HLM
[4] = system: human primary mesenchymal stem cells; details: cited from earlier work
spine fusion = details: compared to other analogues; cited from earlier work
bone disease models = details: rabbit spine fusion and rabbit calvarial defect models; cited from earlier work
[5] = Hydroxyapatite (HAP) binding assay, NMR readout; details: in D2O, internal integration standard maleic acid, low HAP loading (FIG. 4C)
Method: The bone binding properties of bisphosphonates are due to their affinity for calcium in hydroxyapatite (HAP). Relative HAP binding capacity can be measured by incubating a solution of an analyte with HAP and measuring the proportion of compound remaining in the supernatant. […] Reliable quantification of a range of analytes can be obtained by using an inverse-gated decoupling pulse sequence and sufficiently long relaxation delays (d1).
The HAP binding assay was carried out under the following conditions: 1 mL of 4 mM analyte in 50 mM tris buffer at pH 7.5 is incubated with HAP (or no HAP for control) by inversion for 15 minutes. […] The procedure is illustrated in FIG. 3A.
The binding strengths of the OXY133-ALN conjugates of the present invention relative to ALN were determined and any differences in binding affinity contributed by the degree (mono- vs. bis-ALN linked conjugates), position (C3-OH vs. C6-OH), and nature (succinate vs. glycinate) of the Oxy133-ALN conjugates noted. ALN was used as a positive control and benzyl phosphonic acid (BnP) as an established negative control. 600 mg of HAP was used for the “large HAP loading” condition (FIG. 4A) and 150 mg of HAP was used for the “low HAP loading” condition (FIG. 4B).
Experimental conditions: 1 mL of 4 mM analyte in 50 mM tris buffer pH 7.5 is incubated with specified amount of HAP (or no HAP for control) by inversion for 15 min. […]

## CCCCCC[C@](C)(O)[C@H]1CC[C@H]2[C@@H]3C[C@H](OC(=O)NCC(=O)NCCCC(O)(P(=O)(O)O)P(=O)(O)O)[C@H]4C[C@@H](O)CC[C@]4(C)[C@H]3CC[C@@]21C [Oxy175]
[1]
  induction of osteogenic gene expression (ALP, BSP, OSX): most active
[2]
  ALP activity induction: most active

## CCCCCC[C@](C)(O)[C@H]1CC[C@H]2[C@@H]3C[C@H](O)[C@H]4C[C@@H](O)CC[C@]4(C)[C@H]3CC[C@@]21C [OXY133]
[3]
  half-life: < 5 min
[4]
  osteogenesis in cultured human primary mesenchymal stem cells: induce osteogenesis
Spine fusion
  spine fusion in rats: induce spine fusion in rats in an accelerated manner
Bone disease models
  osteogenesis in non-rodent models of bone disease: induce robust osteogenesis

## CCCCCC[C@](C)(O)[C@H]1CC[C@H]2[C@@H]3C[C@H](O)[C@H]4C[C@@H](OC(=O)NCC(=O)NCCCC(O)(P(=O)(O)O)P(=O)(O)O)CC[C@]4(C)[C@H]3CC[C@@]21C [Oxy177]
[5]
  HAP binding affinity, 1H-NMR method: binding affinity equivalent to the rest of the OXY-ALN series
